Molecular target: T1, human leukocyte elastase (HLE) (Homo sapiens, UniProt P08246)
T1 construct: CEREP (contract assay)
T1 sequence (P08246 30-267): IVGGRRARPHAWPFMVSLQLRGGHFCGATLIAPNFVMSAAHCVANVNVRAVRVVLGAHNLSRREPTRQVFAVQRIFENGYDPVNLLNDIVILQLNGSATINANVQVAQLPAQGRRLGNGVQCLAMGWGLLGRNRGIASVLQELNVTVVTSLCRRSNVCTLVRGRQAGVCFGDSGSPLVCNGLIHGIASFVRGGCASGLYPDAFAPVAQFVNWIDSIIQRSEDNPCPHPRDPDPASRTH
Test: Human Elastase Assay test (CEREP catalog), photometry
Assay type: biochemical
Settings: for inhibition at 1000 µM: compound at 1 mM, reference substrate MeOSAAPV-pNa at 0.1 mM, photometry, read-out: Elastase inhibition activity (conc 1 mM); for IC50: human elastase, read-out: IC50 (concentration that produces 50% inhibition of the human elastase activity)
Description: The molecules have been evaluated in vitro on a Human Elastase Assay test, available in the CEREP catalog.
The results are expressed as a percentage of activity versus a specific control (activity measured with compounds of the invention/control activity without the compound of the invention)×100.
The control is the enzymatic activity of human leukocyte elastase (HLE) on a reference substrate (MeOSAAPV-pNa at 0.1 mM).
The detection method used is photometry.
This method is described in the literature: Adeyemi et al 1990, J. Pharm. Pharmacol. 42, 487-490.
The concentration that produces 50% inhibition of the human elastase activity (IC50) was measured.

| SMILES | inhibition at 1000 µM [%] | IC50 [mM] | effectiveness for inhibiting elastase activity compared with the compound of the prior art (comparison in words) |
| --- | --- | --- | --- |
| CC(=O)N(c1ccc(C(=O)O)c(O)c1)[C@H](C(=O)NCC(=O)O)C(C)C [Compound 1, N-ACETYL-N-(4-CARBOXY-3-HYDROXYPHENYL)VALYLGLYCINE] | 98 |  |  |
| CC(=O)N(c1ccc(C(=O)O)cc1)C(C(=O)NCC(=O)O)C(C)C (centres unmarked) [Compound 8] | 88 |  |  |
| COC(=O)c1cc(C(=O)OC)cc(N(C(C)=O)C(C(=O)NCC(=O)O)C(C)C)c1 (centres unmarked) [Compound 6, N-ACETYL-N-[3,5-BIS(METHOXYCARBOXY)PHENYL]VALYLGLYCINE] | 65 |  |  |
| CC(=O)N(c1cccc(C(F)(F)F)c1)C(C(=O)NCC(=O)O)C(C)C (centres unmarked) [Z, reference compound] |  | 6.38 |  |
| CC(=O)N(c1cccc(O)c1)[C@H](C(=O)NCC(=O)O)C(C)C [Compound 7, N-ACETYL-N-(3-HYDROXYPHENYL)VALYLGLYCINE] | 62 |  |  |
| CC(=O)N(c1ccc(C(=O)O)c(C(=O)O)c1)[C@H](C(=O)NCC(=O)O)C(C)C [Compound 2, N-ACETYL-N-(3,4-DICARBOXYPHENYL)VALYLGLYCINE] | 98 |  |  |
| CC(=O)N(c1cccc(C#N)c1)C(C(=O)NCC(=O)O)C(C)C (centres unmarked) [Compound 4] | 35 | 5.6 | clearly more effective than the compound of the prior art |
| CCOC(=O)c1cc(N(C(C)=O)[C@H](C(=O)NCC(=O)O)C(C)C)ccc1O [Compound 5, N-ACETYL-N-[3-(ETHOXYCARBONYL)-4-HYDROXYPHENYL]VALYLGLYCINE] | 62 |  |  |
| CC(=O)N(c1cc(C(=O)O)cc(C(=O)O)c1)[C@H](C(=O)NCC(=O)O)C(C)C [Compound 3, N-ACETYL-N-(3,5-DICARBOXYPHENYL)VALYLGLYCINE] | 98 |  |  |
